For 21 compounds, EC50 and IC50 results are on record in patent publication US10316017B2, “COT modulators and methods of use thereof” (Gilead Sciences, Inc., priority 2015, dated 2019).

The structures appear in SMILES notation. Where two headings read alike, the source gives them in different places.

What is called EC50 is the concentration needed to bring the measured effect to its halfway point. As usually defined, the IC50 is the point on the concentration scale where inhibition reaches its midpoint.

Assay [1] concerns TNFα production in LPS-stimulated human monocytes. Nature of the assay: Cot Monocyte TNFα Cell Based Assay. Particulars: Homo sapiens, Monocyte, read-out: EC50 TNF. In a few lines:
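Cells at 5,000/well were pretreated with compound for 1 h at 37 °C (0.5% DMSO final), then stimulated with 50 pg/ml LPS for 4 h at 37 °C. Supernatant TNFα was measured by two-antibody TR-FRET after overnight room-temperature incubation; values are percent of control between unstimulated and stimulated wells.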

Assay [2] concerns the target T1, human Cot catalytic domain (30-397 amino acids) (Homo sapiens, UniProt P41279).
T1 construct: Purified recombinant human Cot catalytic domain (30-397 amino acids) was purchased from Cama Biosciences; purchased Cama Biosciences (so in the source)
Nature of the assay: High Throughput Cot Biochemical Assay (KinEASE TR-FRET). Particulars: read-out: IC50 HTRF. Put shortly: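 Reaction of 5 nM recombinant human Cot catalytic domain (aa 30-397) with 1 μM STK3 peptide (XL665-labeled) and 400 μM ATP in 10 mM MOPS pH 7.0, 10 mM MgOAc, 1 mM DTT, 0.5 mg/mL BSA, 0.1% DMSO. Phosphopeptide detected by TR-FRET with europium anti-phospho antibody.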
Background: Time-resolved FRET reads energy transfer from a long-lived donor to a nearby acceptor.

The mark [3] stands for this setting: TNFα in LPS-stimulated human monocytes.
Where [4] appears, read: Cot KinEASE TR-FRET (HTRF) biochemical assay, 400 μM ATP.
The mark [5] stands for this setting: Cot biochemical HTRF (KinEASE TR-FRET) assay.
[6] abbreviates: LPS-stimulated human monocytes, TNFα TR-FRET.
Setting [7] is: Cot KinEASE TR-FRET, 400 μM ATP.

T1 sequence (P41279 30-397): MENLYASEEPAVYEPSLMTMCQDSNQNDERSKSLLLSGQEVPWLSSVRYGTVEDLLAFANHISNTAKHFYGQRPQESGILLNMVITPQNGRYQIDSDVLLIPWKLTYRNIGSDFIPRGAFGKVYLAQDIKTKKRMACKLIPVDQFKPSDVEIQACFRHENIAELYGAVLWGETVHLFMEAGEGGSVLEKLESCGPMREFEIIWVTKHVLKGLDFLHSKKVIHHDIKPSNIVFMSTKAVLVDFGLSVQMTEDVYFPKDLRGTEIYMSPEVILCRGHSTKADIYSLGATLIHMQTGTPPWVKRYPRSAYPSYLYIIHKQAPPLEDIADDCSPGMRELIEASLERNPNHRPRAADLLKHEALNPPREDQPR

As to `[2H][C@](Nc1cc(C#N)c2ncc(C#N)c(N[C@H](CC)c3ccccc3)c2c1)(c1ccc(F)cc1)c1cn(C2(C(F)(F)F)CC2)nn1` [Example 132, 6-(((S)-(4-fluorophenyl) (1-(1-(trifluoromethyl)cyclopropyl)-1H-1,2,3-triazol-4-yl)methyl-d)amino)-4-(((R)-1-phenylpropyl)amino)quinoline-3,8-dicarbonitrile], the EC50 in assay [1] (setting [3]) was 140 nM. For the same compound, the IC50 in assay [2] (setting [4]) was determined as 14 nM.
As for `CC(C)(C)N1CCC(n2cc([C@@H](Nc3cc(Cl)c4ncc(C#N)c(Nc5ccc(F)c(Cl)c5)c4c3)c3cccc(-c4nccs4)c3)nn2)CC1` [Example 632, (S)-6-(((1-(1-(tert-butyl)piperidin-4-yl)-1H-1,2,3-triazol-4-yl)(3-(thiazol-2-yl)phenyl)methyl)amino)-8-chloro-4-((3-chloro-4-fluorophenyl)amino)quinoline-3-carbonitrile], in assay [1] (setting [3]), the concentration giving a half-maximal response (EC50) worked out at 163 nM. Moreover, in assay [2] (setting [5]), the half-maximal inhibitory concentration (IC50) worked out at 3 nM.
As for `N#CCC[C@@H](Nc1c(C#N)cnc2c(Cl)cc(N[C@H](c3cn(CC(N)=O)nn3)c3ccccc3Cl)cc12)c1ccccc1` [Example 71, 2-(4-((S)-((8-chloro-3-cyano-4-(((R)-3-cyano-1-phenylpropyl)amino)quinolin-6-yl)amino) (2-chlorophenyl)methyl)-1H-1,2,3-triazol-1-yl) acetamide], in assay [1] (setting [3]), the EC50 was 657 nM. For the same compound, the IC50 in assay [2] (setting [4]) was 4 nM.
Regarding `Cc1c(C#N)cccc1[C@H](Nc1cc(C#N)c2ncc(C#N)c(NCC(C)(C)C(F)(F)F)c2c1)c1cn(C2(C(F)F)CC2)nn1` [Example 1125, (S)-6-(((3-cyano-2-methylphenyl)(1-(1-(difluoromethyl)cyclopropyl)-1H-1,2,3-triazol-4-yl)methyl)amino)-4-((3,3,3-trifluoro-2,2-dimethylpropyl)amino)quinoline-3,8-dicarbonitrile], the EC50 in assay [1] (setting [6]) is 51 nM. For the same compound, in assay [2] (setting [7]), the IC50 worked out at 4 nM.
The matching figures for `Cc1c(C#N)cccc1[C@H](Nc1cc(Cl)c2ncc(C#N)c(NCC(C)(C)C)c2c1)c1cn(C2(C(N)=O)CCC2)nn1` [Example 1009, (S)-1-(4-(((8-chloro-3-cyano-4-(neopentylamino)quinolin-6-yl)amino)(3-cyano-2-methylphenyl)methyl)-1H-1,2,3-triazol-1-yl)cyclobutane-1-carboxamide]: 67 nM and 1 nM.
In the case of `[2H][C@](Nc1cc(Cl)c2ncc(C#N)c(NC(c3ccccc3)C(C)(C)C)c2c1)(c1ccc(F)cc1)c1cn(C2CC2)nn1` (stereo partly drawn) [Example 307, 8-chloro-6-(((S)-(1-cyclopropyl-1H-1,2,3-triazol-4-yl)(4-fluorophenyl)methyl-d)amino)-4-((2,2-dimethyl-1-phenylpropyl)amino)quinoline-3-carbonitrile], in assay [1] (setting [3]), the EC50 came to 950 nM. In addition, the IC50 in assay [2] (setting [4]) was found to be 116 nM.
Take `CC(C)(C)CNc1c(C#N)cnc2c(F)cc(N[C@H](c3cn(C4(C(F)(F)F)CC4)nn3)c3ccccc3Cl)cc12` [Example 1017, (S)-6-(((2-chlorophenyl)(1-(1-(trifluoromethyl)cyclopropyl)-1H-1,2,3-triazol-4-yl)methyl)amino)-8-fluoro-4-(neopentylamino)quinoline-3-carbonitrile]: the EC50 in assay [1] (setting [6]) was not below 1000 nM. Moreover, the IC50 in assay [2] (setting [7]) turned out to be 85 nM.
Take `Cc1c([C@H](Nc2cc(C#N)c3ncc(C#N)c(NCC(C)(C)C)c3c2)c2cn(C3(C(F)F)CC3)nn2)cccc1-n1cnnc1` [Example 1073, (S)-6-(((1-(1-(difluoromethyl)cyclopropyl)-1H-1,2,3-triazol-4-yl)(2-methyl-3-(4H-1,2,4-triazol-4-yl)phenyl)methyl)amino)-4-(neopentylamino)quinoline-3,8-dicarbonitrile]: in assay [1] (setting [6]), the EC50 is not below 1000 nM. Further, in assay [2] (setting [7]), the IC50 is 1 nM.
`Cc1ccccc1[C@H](Nc1cc(C#N)c2ncc(C#N)c(NCC(C)(C)C)c2c1)c1cn(C2(C(F)F)CC2)nn1` [Example 1066, (S)-6-(((1-(1-(difluoromethyl)cyclopropyl)-1H-1,2,3-triazol-4-yl)(o-tolyl)methyl)amino)-4-(neopentylamino)quinoline-3,8-dicarbonitrile]: the EC50 in assay [1] (setting [6]) was 85 nM. For the same compound, the half-inhibitory concentration (IC50) in assay [2] (setting [7]) is 10 nM.
With `N#Cc1cnc2c(Cl)cc(N[C@@H](c3ccc(F)cc3)c3cn(C4CC4)nn3)cc2c1Nc1cnc(F)c(Cl)c1` [Example 414, (S)-8-chloro-4-((5-chloro-6-fluoropyridin-3-yl)amino)-6-(((1-cyclopropyl-1H-1,2,3-triazol-4-yl)(4-fluorophenyl)methyl)amino) quinoline-3-carbonitrile], the EC50 in assay [1] (setting [3]) was 140 nM. Also, the IC50 in assay [2] (setting [5]) was 4 nM.
Regarding `Cc1c([C@H](Nc2cc(C#N)c3ncc(C#N)c(NCC(C)(C)C)c3c2)c2cn(C3(C(F)(F)F)CC3)nn2)cccc1-n1ccnc1` [Example 1042], the half-maximal effective concentration (EC50) in assay [1] (setting [6]) was 105 nM. Moreover, in assay [2] (setting [7]), the IC50 was 2 nM.
`[2H][C@](Nc1cc(F)c2ncc(C#N)c(NC(CCC#N)c3ccccc3)c2c1)(c1cccc(C#N)c1)c1cn(C2CC2)nn1` (stereo partly drawn) [Example 254, 4-((3-cyano-1-phenylpropyl)amino)-6-(((S)-(3-cyanophenyl) (1-cyclopropyl-1H-1,2,3-triazo1-4-yl)methyl-d)amino)-8-fluoroquinoline-3-carbonitrile]: in assay [1] (setting [3]), the concentration giving a half-maximal response (EC50) is 42 nM. Also, the IC50 in assay [2] (setting [4]) was found to be 3 nM.
The matching figures for `[2H][C@@](Nc1cc(C#N)c2ncc(C#N)c(NCC(C)(C)C)c2c1)(c1cn(C2(C(F)(F)F)CC2)nn1)c1ccccc1Cl` [Example 129, (S)-6-(((2-chlorophenyl) (1-(1-(trifluoromethyl)cyclopropyl)-1H-1,2,3-triazol-4-yl)methyl-d)amino)-4-(neopentylamino) quinoline-3,8-dicarbonitrile]: 344 nM and 20 nM.
The matching figures for `CC(C)n1cc([C@@H](Nc2cc(Cl)c3ncc(C#N)c(Nc4ccc(F)c(Cl)c4)c3c2)c2cccc(S(=O)(=O)N(C)C)c2)nn1` [Example 383, (S)-3-(((8-chloro-4-((3-chloro-4-fluorophenyl)amino)-3-cyanoquinolin-6-yl)amino)(1-isopropyl-1H-1,2,3-triazol-4-yl)methyl)-N,N-dimethylbenzenesulfonamide]: 148 nM and 11 nM.
Take `CC(C)(C)N1CCC(n2cc([C@@H](Nc3cc(Cl)c4ncc(C#N)c(Nc5ccc(OC(F)(F)F)cc5)c4c3)c3ccc(Cl)cc3)nn2)CC1` [Example 759, (S)-6-(((1-(1-(tert-butyl)piperidin-4-yl)-1H-1,2,3-triazol-4-yl)(4-chlorophenyl)methyl)amino)-8-chloro-4-((4-(trifluoromethoxy)phenyl)amino) quinoline-3-carbonitrile]: the EC50 in assay [1] (setting [3]) came out at 2750 nM. The concentration for half-maximal inhibition (IC50) in assay [2] (setting [5]) was 2140 nM.
On to `COc1ccccc1CNc1c(C#N)cnc2c(Cl)cc(N[C@@H](c3ccc(F)cc3)c3cn(C4CCN(C(C)(C)C)CC4)nn3)cc12` [Example 442, (S)-6-(((1-(1-(tert-butyl)piperidin-4-yl)-1H-1,2,3-triazol-4-yl)(4-fluorophenyl)methyl)amino)-8-chloro-4-((2-methoxybenzyl)amino) quinoline-3-carbonitrile], for which the concentration giving a half-maximal response (EC50) in assay [1] (setting [3]) was found to be 4900 nM. The IC50 in assay [2] (setting [5]) amounted to 193 nM.
As for `[2H][C@](Nc1cc(Cl)c2ncc(C#N)c(N[C@H](CC#N)c3ccccc3)c2c1)(c1cccc(C#N)c1)c1cn(C2CC2)nn1` [Example 296, 8-chloro-4-(((R)-2-cyano-1-phenylethyl)amino)-6-(((S)-(3-cyanophenyl)(1-cyclopropyl-1H-1,2,3-triazol-4-yl)methyl-d)amino)quinoline-3-carbonitrile], the EC50 in assay [1] (setting [3]) was 44 nM. In assay [2] (setting [4]), the IC50 stood at 2 nM.
The matching figures for `CC(C)(C)CNc1c(C#N)cnc2c(Br)cc(N[C@@H](c3cccc(C(=O)N4CC(F)C4)c3)c3cn(C4CC4)nn3)cc12` [Example 53, (S)-8-bromo-6-(((1-cyclopropyl-1H-1,2,3-triazol-4-yl)(3-(3-fluoroazetidine-1-carbonyl)phenyl)methyl)amino)-4-(neopentylamino) quinoline-3-carbonitrile]: 163 nM and 5 nM.
Consider `CC(C)(C)N1CCC(n2cc([C@@H](Nc3cc(Cl)c4ncc(C#N)c(Nc5ccc(F)c(Cl)c5)c4c3)c3ccccc3)nn2)CC1` [Example 831, (S)-6-(((1-(1-(tert-butyl)piperidin-4-yl)-1H-1,2,3-triazol-4-yl)(phenyl)methyl)amino)-8-chloro-4-((3-chloro-4-fluorophenyl)amino)quinoline-3-carbonitrile], for which, in assay [1] (setting [3]), the half-maximal effective concentration (EC50) came out at 381 nM. Moreover, the half-inhibitory concentration (IC50) in assay [2] (setting [5]) amounted to 10 nM.
As for `CC(C)(C)CNc1c(C#N)cnc2c(Cl)cc(N[C@@H](c3ccccc3)c3cn(C45CC(C4)C5)nn3)cc12` [Example 1093, (S)-6-(((1-(bicyclo[1.1.1]pentan-1-yl)-1H-1,2,3-triazol-4-yl)(phenyl)methyl)amino)-8-chloro-4-(neopentylamino)quinoline-3-carbonitrile], in assay [1] (setting [6]), the concentration giving a half-maximal response (EC50) worked out at 424 nM. Further, the 50% inhibitory concentration (IC50) in assay [2] (setting [7]) amounted to 17 nM.
`CC[C@@H](Nc1c(C#N)cnc2c(Cl)cc(N[C@@H](c3cccc(-c4ccccc4)c3)c3cn(C4CC4)nn3)cc12)c1ccccc1` [Example 94, 6-(((S)-[1,1'-biphenyl]-3-yl(1-cyclopropyl-1H-1,2,3-triazol-4-yl)methyl)amino)-8-chloro-4-(((R)-1-phenylpropyl)amino) quinoline-3-carbonitrile]: in assay [1] (setting [3]), the EC50 was more than 1000 nM. For the same compound, in assay [2] (setting [4]), the IC50 was 12 nM.
